For experiment [1], the system named is hippocampal microglia mRNA (Il1b, Il6, Tnfa, Nlrp3, Csf1r). Description: mRNA (RT-qPCR) in microglia enriched from rat hippocampus after LPS. The note with it: rats, LPS 500 μg/kg; label LPS = LPS + vehicle, label Luma = Luma 3 mg/kg 16 h after LPS; microglia isolated +18 h; normalized to control (Dct). Type of experiment: in vivo. As for the experimental part:
Microglia Enrichment. […] Brain tissue is then processed through a dounce homogenizer followed by passages through 16- and 20-gauge needles. One mL of medium A is added to wash cell suspension, which is passed through a […] cell strainer and kept on ice. Next, 6 mL of 100% Percoll solution (9 parts of Percoll [GE Healthcare, Chicago, IL] and 1 part of HBSS) is added to obtain a 75% Percoll solution. The 75% Percoll cell suspension is then underlaid a layer of 25% Percoll solution containing Phenol red, which has a layer of PBS on top. The discontinuous Percoll density gradient is layered as followed: 75%, 25%, and 0% isotonic Percoll (PBS) to isolate hippocampal microglia. The gradients are then centrifuged at 4° C. for 25 minutes at 3,000 rpm in swinging buckets with minimal acceleration and deceleration and no brake. After centrifugation, the top layer containing myelin and debris (interface PBS/25% Percoll) is removed and the cellular layer at the 25%/75% interphase is collected and washed. Pilot experiments compare the gene expression of the different fractions and validated the presence of microglia in the interphase layer. The final pellet is resuspended in 350 μL of Buffer RLT from Qiagen microkit (Qiagen) to perform RNA extraction according to the manufacturer's instructions.
Exploratory experiments reveal that in microglia-enriched fractions from rat hippocampi, inflammation is returned closer to background levels at +26 hours after a dose of LPS. Thus, an earlier time point of +18 h after the LPS injection is selected to assess potential changes indicative of inflammation.
Hippocampi on both sides of the brain are collected 2 hours later (+18 hour from LPS injection) and microglia are rapidly isolated in an enriched fraction by Percoll gradient. RNA is extracted from the resulting, reconstituted cell pellet and RT-qPCR is performed. The results are shown in Table 7 as relative change in mRNA levels for each cytokine gene (Il1b, Il6, Tnfa, Nlrp3, Csf1r) normalized to the control group using the Dct method (n=8-12 per group): […]

Experiment [2] has as its system serum cytokines IL-1b, IL-6, TNF-alpha, IL-10. In words: Serum cytokine protein (Multiplex MSD) after acute restraint stress. Type of experiment: in vivo, mouse. The note with it: mice, 2 h restraint stress; Luma 3 mg/kg IP immediately before. As for the experimental part: Multiplex Assays. In mouse serum, protein levels of IL-1b, IL-6, IL-10 and TNF-alpha are measured using a V-Plex Meso Scale Discovery (MSD) Multiplex spot assay Mouse Neuroinflammation 1 panel (Meso Scale Diagnostics, Rockville, MD). All samples are run in duplicates or triplicates according to manufacturer instructions and analyzed with MSD Discovery Workbench software (Meso Scale Diagnostics).
Restraint Stress Protocol.
Control mice receive vehicle treatment and are returned to their home cage before sample collection. Protein concentration is measured using the Multiplex MSD assay V-Plex technology, normalized to the control group. Results are expressed in pg/mL.

In experiment [3] the test system is hippocampal mRNA (Il1b, Il6, Tnfa, Il10, Cldn5). In words: Hippocampal mRNA (qRT-PCR) after acute restraint stress. Type of experiment: in vivo, mouse. The note with it: mice, 2 h restraint stress, Luma 3 mg/kg IP. As to the method:
Quantitative Real-Time PCR. Mouse hippocampal tissue is homogenized with glass beads in 1 mL of TRIzol reagent using a BeadBeater (Biospec Products, Bartlesville, OK). Heavy phase-lock gel tubes enabled separation of phases following the addition of 400 μL chloroform to the sample and centrifugation at 12,000 rpm for 10 minutes at room temperature. RNA is extracted using Qiagen Rneasy kit (Qiagen, Hilden, Germany). For cDNA synthesis, 2 μg of total RNA is used (SuperScript IV Reverse Transcriptase; ThermoFisher Scientific, Waltham, MA). The purity and concentration of RNA is measured with a Nanodrop spectrophotometer; the optical density (OD) 260/280 and OD 260/230 are within 1.8-2.3. In the hippocampus, 4 key markers of pro- and anti-inflammatory cytokines and chemokines (Il1b: ID Mm00434228_m1, Tnfa: ID Mm00443258_m1, 116: ID Mm00446190_m1, and I110: ID Mm01288386_m1; ThermoFisher Scientific) are initially chosen for analysis (n=5-12 per group). In subsequent experiments, the transcripts for other markers of inflammation are chosen for analysis including Icam1 (ID Mm00516023_m1; a cell adhesion molecule involved in immune cell migration), Cldn5 (ID Mm00727012_s1; a tight junctions protein), colony stimulating factor 1 (Csf1: ID Mm00432686_m1; a factor that regulates microglia function) and its receptor Csf1r (ID Mm01266652_m1), and the nucleotide binding and oligomerization domain-like receptor family pyrin domain-containing 3 inflammasome complex (Nlrp3: Mm00840904_m1). Gapdh (ID Mm99999915_g1) is chosen as a housekeeping gene. […] All mRNAs are measured by qRT-PCR on ABI Prism 7900HT system using TaqMan Gene Expression Assays. […]
Using similar procedures as described above, serum corticosterone levels and hippocampal Cldn5 mRNA expression are measured as well (corticosterone is measured using a commercial ELISA kit).

[4] abbreviates: relative change normalized to control (Dct method).

With “lipopolysaccharide [LPS, reference compound]”, in experiment [1], the “Hippocampal microglial cytokine mRNA expression IL-1b” value came out at 2.82, the “Hippocampal microglial cytokine mRNA expression IL-6” value was 0.89, the “Hippocampal microglial cytokine mRNA expression TNF-alpha” value is reported as −0.28 and the “Hippocampal microglial mRNA expression Csf1R” value amounted to 0.50. For the same compound, the “Hippocampal microglial mRNA expression NLRP3” value in experiment [1] is 0.71.

Consider `CN1CCN2c3c(cccc31)[C@@H]1CN(CCCC(=O)c3ccc(F)cc3)CC[C@@H]12` [Luma, lumateperone], for which the “Serum cytokine concentration IL-1b” value in experiment [2] came to 0.81 pg/mL. For the same compound, in experiment [3] (normalized to control), the “Hippocampal mRNA expression Cldn5” value is 0.330. In addition, in experiment [3] (setting [4]), the “Hippocampal cytokine mRNA expression IL-1b” value is on record as 0.39 and the “Hippocampal cytokine mRNA expression IL-6” value is on record as −0.051. Besides, in experiment [1], the “Hippocampal microglial cytokine mRNA expression IL-1b” value is 0.38, the “Hippocampal microglial cytokine mRNA expression IL-6” value is −0.22, the “Hippocampal microglial cytokine mRNA expression TNF-alpha” value was −1.00 and the “Hippocampal microglial mRNA expression Csf1R” value is given as −0.05. In experiment [1], the “Hippocampal microglial mRNA expression NLRP3” value is given as −0.48.

The record behind these values is patent US12414948B2, “Methods” (INTRA-CELLULAR THERAPIES, INC., priority 2022, dated 2025).
